# Source: patent publication US10111885B2, “Compositions and therapeutic methods for the treatment of complement-associated diseases” (Resverlogix Corp., priority 2015, dated 2018)
# pIC50: −log10 of the molar value. Where two headings read alike, the source gives them in different places.
# Tests used:
# complement C3 protein = assay: Secreted complement protein ELISA, HepG2 cells; type: cell-based, human; conditions: HepG2, 72 h, ± standard deviation
# Procedure: (§1) In this example, protein secretion from cells grown in culture in the presence of compound of interest was analyzed by enzyme linked immunosorbent assay (ELISA). In some cases, cultured cells were treated with cytokines and the compound of interest to mimic an inflammatory state. The method can be used to determine the effect of compounds, including those in the present invention, on the secretion of specific proteins from cells grown in culture under basal and cytokine stimulated (i.e. inflammatory) conditions (Table 7, FIGS. 5 and 6).
# (§2) Huh-7 cells (JCRB Cell Bank) were introduced to 24-well plates in 500 μL DMEM supplemented with 10% (v/v) FBS, 100 U/mL penicillin, 100 ug/mL streptomycin and 5 ug/mL plasmocin (all reagents from Gibco, except for the former, which comes from Invivogen) at 200 000 cells/well. After 24 h, cells were treated with the compound of interest and/or cytokines in DMEM with 10% FBS containing 0.1% DMSO for a total treatment time of 72 h. Fresh media containing compounds and/or cytokines was introduced in the final 24 h of the experiment. At harvest, media were collected, debris was removed by brief centrifugation, and ELISA assays for the indicated proteins were performed as per the manufacturer's protocol. To correct for differences in cell numbers, values obtained for complement proteins were normalized to values for transferrin. HepG2 cells (ATCC) were cultured in MEM containing 10% FBS, 1× non-essential amino acids, 1 mM sodium pyruvate, 2 mM L-glutamine, 100 U/mL penicillin, 100 ug/mL streptomycin and 5 ug/mL plasmocin. Serum amount was reduced to 0.5% when compounds were present. Treatment combinations and timing were as described above for Huh-7 cells. Primary human hepatocytes (CellzDirect/Life Technologies) were plated in collagen coated 96-well plates at 70 000 cells/well, then overlaid with Matrigel™ as recommended by the supplier. Cells were treated with compounds of interest with or without the indicated cytokines for a total of 72 h in the recommended media supplemented with 10% FBS and 0.1% DMSO (v/v). Media were collected for measurements of secreted proteins.
# (§3) The ELISA kits for detection of complement C3, C4, C5 and C9 were obtained from AssayPro (St. Charles, Mo.), while the ELISA reagents for transferrin detection were from Bethyl Laboratories (Montgomery, Tex.). Data were collected on a Thermo Scientific Multiskan GO apparatus. Downregulation of expression of components of the complement cascade will result in reduced activity of the pathway and thus will constitute a positive result.
# complement C4 protein = assay: Secreted complement protein ELISA, HepG2 cells; type: cell-based, human; conditions: HepG2, 72 h, ± standard deviation
# Procedure: as §1, §2, §3
# complement C5 protein = assay: Secreted complement protein ELISA, HepG2 cells; type: cell-based, human; conditions: HepG2, 72 h, ± standard deviation
# Procedure: as §1, §2, §3
# MBL2 mRNA = assay: Complement gene mRNA expression, TaqMan real-time PCR, Huh-7 cells; type: cell-based; conditions: Homo sapiens; Huh-7, 48 h treatment; read-out: MBL2 (48 h) mRNA, half maximal inhibitory concentration (IC50)
# From the text: (§4) In this example, mRNA levels from cultured cells were quantitated. The assay can be used to determine the effect of compound(s) on regulating mRNA levels, including those compounds in the present invention. Complement genes are expressed at high endogenous levels, but their expression can also be stimulated with various cytokines in inflammatory conditions. Experiments in this example target both basal and inflammatory complement gene expression. Compound mediated changes in gene expression and resulting mRNA levels are presented in Tables 2, 3 and 4 as well as FIGS. 1, 2, 3 and 4 below.
# (§5) Huh-7 and HepG2 cells are liver-derived cell lines and are models for what can occur in the liver. Huh-7 cells (JCRB Cell Bank) were introduced to 96-well plates (^˜2.5×10^5 per well) in 100 μL DMEM containing 10% (v/v) FBS, 100 U/mL penicillin, 100 ug/mL streptomycin and 5 ug/mL plasmocin (all reagents from Gibco, except for the former, which was obtained from Invivogen). After 24 h, Huh-7 cells were treated with compounds in the same media formulation used for plating, and supplemented with 0.1% DMSO for the amount of time indicated in tables 2, 3, and 4. For select experiments, 24 h post-plating, cells were treated with cytokines and the compound of interest simultaneously, for a total treatment time of 48 h. Alternatively, 24 h after plating, cells were pre-treated with cytokines for 24 h before adding the compound of interest for 48 h. HepG2 cells (ATCC) were cultured in 96-well plates (^˜2.5×10^5 per well) in MEM containing 10% FBS, 1× non-essential amino acids, 1 mM sodium pyruvate, 2 mM L-glutamine, 100 U/mL penicillin, 100 ug/mL streptomycin and 5 ug/mL plasmocin. Serum amount was reduced to 0.5% for treatments with compound or cytokines. Timing of treatment of HepG2 cells with compounds and cytokines was as described for Huh-7 cells. Primary human hepatocytes (CellzDirect/Life Technologies) were plated in collagen coated 96-well plates at 70 000 cells/well, then overlaid with Matrigel™ as recommended by the supplier. Cells were treated with compounds of interest and/or cytokines for the indicated time points in the recommended media supplemented with 0.1% DMSO and 10% FBS (v/v). Cells were harvested by mRNA Catcher PLUS Kit (Life Technologies) followed by real-time PCR using the RNA UltraSense One-Step qRT-PCR System. The level of the mRNA of interest was measured by TaqMan real-time PCR relative to the endogenous control cyclophilin A in the same sample. […]
# (§6) Downregulation of expression of components of the complement cascade will result in reduced activity of the pathway and thus will constitute a positive result. […] Table 4 lists the maximum reduction in the indicated mRNA measured in primary human hepatocytes treated with compounds for up to 72 hours. […]
# C1S mRNA = assay: as above; type: cell-based; conditions: Homo sapiens; Huh-7, 48 h treatment; read-out: C1S (48 h) mRNA, half maximal inhibitory concentration (IC50)
# From the text: as §4, §5, §6
# C3 mRNA = assay: as above; type: cell-based, human; conditions: for pIC50: Huh-7, 48 h treatment, read-out: C3 (48 h) mRNA, half maximal inhibitory concentration (IC50)
# From the text: as §4
# (§7) Huh-7 and HepG2 cells are liver-derived cell lines and are models for what can occur in the liver. Huh-7 cells (JCRB Cell Bank) were introduced to 96-well plates (^˜2.5×10^5 per well) in 100 μL DMEM containing 10% (v/v) FBS, 100 U/mL penicillin, 100 ug/mL streptomycin and 5 ug/mL plasmocin (all reagents from Gibco, except for the former, which was obtained from Invivogen). After 24 h, Huh-7 cells were treated with compounds in the same media formulation used for plating, and supplemented with 0.1% DMSO for the amount of time indicated in tables 2, 3, and 4. For select experiments, 24 h post-plating, cells were treated with cytokines and the compound of interest simultaneously, for a total treatment time of 48 h. Alternatively, 24 h after plating, cells were pre-treated with cytokines for 24 h before adding the compound of interest for 48 h. HepG2 cells (ATCC) were cultured in 96-well plates (^˜2.5×10^5 per well) in MEM containing 10% FBS, 1× non-essential amino acids, 1 mM sodium pyruvate, 2 mM L-glutamine, 100 U/mL penicillin, 100 ug/mL streptomycin and 5 ug/mL plasmocin. Serum amount was reduced to 0.5% for treatments with compound or cytokines. Timing of treatment of HepG2 cells with compounds and cytokines was as described for Huh-7 cells. Primary human hepatocytes (CellzDirect/Life Technologies) were plated in collagen coated 96-well plates at 70 000 cells/well, then overlaid with Matrigel™ as recommended by the supplier. Cells were treated with compounds of interest and/or cytokines for the indicated time points in the recommended media supplemented with 0.1% DMSO and 10% FBS (v/v). Cells were harvested by mRNA Catcher PLUS Kit (Life Technologies) followed by real-time PCR using the RNA UltraSense One-Step qRT-PCR System. The level of the mRNA of interest was measured by TaqMan real-time PCR relative to the endogenous control cyclophilin A in the same sample. Data were acquired using the ViiA-7 Real Time PCR System (Applied Biosystems).
# (§8) Downregulation of expression of components of the complement cascade will result in reduced activity of the pathway and thus will constitute a positive result. Tables 2 and 3 list the concentration of compounds at which the level of the indicated mRNA is reduced by 50%, as well as the duration of treatment with compound. Table 4 lists the maximum reduction in the indicated mRNA measured in primary human hepatocytes treated with compounds for up to 72 hours. FIGS. 1, 2, 3 and 4 show effects of compounds on cytokine-induced (i.e. inflammatory) expression of complement genes in Huh-7 cells and HepG2 cells.
# C4a/C4b mRNA = assay: as above; type: cell-based, human
# From the text: as §4, §7, §8
# C5 mRNA = assay: as above; type: cell-based, human; conditions: for pIC50: Homo sapiens
# From the text: as §4, §7, §8
# [1] = Homo sapiens, read-out: C4a/C4b (72 h) mRNA, half maximal inhibitory concentration (IC50), Huh-7, 72 h treatment
# [2] = read-out: C5 (72 h) mRNA, half maximal inhibitory concentration (IC50), Huh-7, 72 h treatment
# [3] = Huh-7 pre-treated with cytokines
# [4] = Huh-7 treated simultaneously with cytokines
smiles,measurement,setting,value
"Cc1sc2c(c1C)C(c1ccc(Cl)cc1)=N[C@@H](CC(=O)OC(C)(C)C)c1nnc(C)n1-2 [JQ1, (S)-tert-butyl 2-(4-(4-chlorophenyl)-2,3,9-trimethyl-6H-thieno[3,2-f][1,2,4]triazolo[4,3-a][1,4]diazepin-6-yl)acetate, reference compound]","C3 secretion, percent maximum reduction in protein levels",complement C3 protein; 0.75 uM,54 ± 5%
same,"C4 secretion, percent maximum reduction in protein levels",complement C4 protein; 0.75 uM,81 ± 9%
same,"C5 secretion, percent maximum reduction in protein levels",complement C5 protein; 0.75 uM,82 ± 7%
same,pIC50,MBL2 mRNA,6.80
same,pIC50,C1S mRNA,6.52
same,IC50,"C3 mRNA; Homo sapiens, Huh-7, 48 h treatment (Table 3), read-out: mRNA expression in Huh-7 cells: IC50 (uM), C3",0.18 µM
same,pIC50,C3 mRNA; Homo sapiens,6.70
same,pIC50,C4a/C4b mRNA; [1],7.15
same,IC50,"C4a/C4b mRNA; Homo sapiens, Huh-7, 48 h treatment (Table 3), read-out: mRNA expression in Huh-7 cells: IC50 (uM), C4",0.065 µM
same,pIC50,C5 mRNA; [2],6.57
"COc1cc(OC)c2c(=O)[nH]c(-c3cc(C)c(OCCO)c(C)c3)nc2c1 [RVX000222, 2-(4-(2-hydroxyethoxy)-3,5-dimethylphenyl)-5,7-dimethoxyquinazolin-4(3H)-one]","C3 secretion, percent maximum reduction in protein levels",complement C3 protein; 30 uM,34 ± 5%
same,"C4 secretion, percent maximum reduction in protein levels",complement C4 protein; 30 uM,65 ± 5%
same,"C5 secretion, percent maximum reduction in protein levels",complement C5 protein; 30 uM,77 ± 4%
same,pIC50,MBL2 mRNA,4.79
same,pIC50,C1S mRNA,4.72
same,pIC50,C3 mRNA; Homo sapiens,5.72
same,expression of complement component 3 at the mRNA level (FIG. 3),C3 mRNA; [3],reduces expression
same,expression of complement component 3 at the mRNA level (FIG. 1),C3 mRNA; [4],reduces expression
same,pIC50,C4a/C4b mRNA; [1],5.27
same,pIC50,"C4a/C4b mRNA; Homo sapiens, Huh-7, 48 h treatment, read-out: C4a/C4b (48 h) mRNA, half maximal inhibitory concentration (IC50)",5.20
same,expression of complement component 4 at the mRNA level (FIG. 3),C4a/C4b mRNA; [3],reduces expression
same,expression of complement component 4 at the mRNA level (FIG. 1),C4a/C4b mRNA; [4],reduces expression
same,pIC50,C5 mRNA; [2],4.66
same,pIC50,"C5 mRNA; Huh-7, 48 h treatment, read-out: C5 (48 h) mRNA, half maximal inhibitory concentration (IC50)",< 4.52
same,expression of complement component 5 at the mRNA level (FIG. 3),C5 mRNA; [3],reduces expression
same,expression of complement component 5 at the mRNA level (FIG. 1),C5 mRNA; [4],reduces expression
